Species on record: Rattus norvegicus
Test: DrugMatrix - Regimen: Daily Repeat
Assay type: toxicity, organism-based, Sprague-Dawley
Parameters: regimen Daily Repeat, gender Male, age 6-8 weeks
Conditions: in vivo, po, route oral GAVAGE, […]; for ABSOLUTE BASOPHIL / ABSOLUTE EOSINOPHIL / BASOPHIL / EOSINOPHIL / NUCLEATED RED BLOOD CELLS / ABSOLUTE LYMPHOCYTE / ABSOLUTE MONOCYTE / ABSOLUTE SEGMENTED NEUTROPHIL / ERYTHROCYTE COUNT / HEMATOCRIT / HEMOGLOBIN / LEUKOCYTE COUNT / LYMPHOCYTE / MEAN CORPUSCULAR HEMOGLOBIN / MEAN CORPUSCULAR HEMOGLOBIN CONCENTRATION / MEAN CORPUSCULAR VOLUME / MONOCYTE / NEUTROPHIL / PLATELET COUNT: tissue Blood; for ALANINE AMINOTRANSFERASE / ALBUMIN / ALKALINE PHOSPHATASE / ASPARTATE AMINOTRANSFERASE / BLOOD UREA NITROGEN / CARBON DIOXIDE / CHLORIDE / CHOLESTEROL / CREATINE PHOSPHOKINASE / CREATININE / GLUCOSE / LACTATE DEHYDROGENASE / LIPASE / PHOSPHORUS / POTASSIUM / SODIUM / TOTAL BILIRUBIN / TOTAL PROTEIN / URIC ACID: tissue Plasma
[1] = 0 mg/kg, 72 h, dose level Control, time 3 day
[2] = 0 mg/kg, 120 h, dose level Control, time 5 day
[3] = 0.08 mg/kg, 72 h, dose level Low, time 3 day
[4] = 0.08 mg/kg, 120 h, dose level Low, time 5 day
[5] = 12 mg/kg, 72 h, dose level M1, time 3 day

C#C[C@]1(O)CC[C@H]2[C@@H]3CCC4=CC(=O)CC[C@@H]4[C@H]3CC[C@@]21C [NORETHINDRONE]
ABSOLUTE BASOPHIL [1]: 0 CELLS/uL
ABSOLUTE EOSINOPHIL [1]: 14 CELLS/uL
BASOPHIL [1]: 0%
EOSINOPHIL [1]: 0.17%
NUCLEATED RED BLOOD CELLS [1]: 0 /100WBC
ABSOLUTE BASOPHIL [2]: 0 CELLS/uL
BASOPHIL [2]: 0%
ABSOLUTE BASOPHIL [3]: 0 CELLS/uL
ABSOLUTE EOSINOPHIL [3]: 0 CELLS/uL
ABSOLUTE LYMPHOCYTE [3]: 8095 CELLS/uL
ABSOLUTE MONOCYTE [3]: 0 CELLS/uL
ABSOLUTE SEGMENTED NEUTROPHIL [3]: 538.33 CELLS/uL
BASOPHIL [3]: 0%
EOSINOPHIL [3]: 0%
ERYTHROCYTE COUNT [3]: 4.99 x10E6/uL
HEMATOCRIT [3]: 31.97%
HEMOGLOBIN [3]: 12.7 G/DL
LEUKOCYTE COUNT [3]: 8.63 x10E3/uL
LYMPHOCYTE [3]: 94.33%
MEAN CORPUSCULAR HEMOGLOBIN [3]: 25.5 pg
MEAN CORPUSCULAR HEMOGLOBIN CONCENTRATION [3]: 39.77 G/DL
MEAN CORPUSCULAR VOLUME [3]: 64.07 fL
MONOCYTE [3]: 0%
NEUTROPHIL [3]: 5.67%
NUCLEATED RED BLOOD CELLS [3]: 0 /100WBC
PLATELET COUNT [3]: 1042.33 x10E3/uL
ALANINE AMINOTRANSFERASE [3]: 76.33 u/L
ALBUMIN [3]: 4.1 G/DL
ALKALINE PHOSPHATASE [3]: 395.67 u/L
ASPARTATE AMINOTRANSFERASE [3]: 84.33 u/L
BLOOD UREA NITROGEN [3]: 13 mg/dL
CARBON DIOXIDE [3]: 28 mmol/L
CHLORIDE [3]: 101 MEQ/L
CHOLESTEROL [3]: 81 mg/dL
CREATINE PHOSPHOKINASE [3]: 236 u/L
CREATININE [3]: 0.17 mg/dL
GLUCOSE [3]: 185.33 mg/dL
LACTATE DEHYDROGENASE [3]: 127 u/L
LIPASE [3]: 24.67 u/L
PHOSPHORUS [3]: 9.57 mg/dL
POTASSIUM [3]: 5.52 MEQ/L
SODIUM [3]: 144.63 MEQ/L
TOTAL BILIRUBIN [3]: 0.1 mg/dL
TOTAL PROTEIN [3]: 5.67 G/DL
URIC ACID [3]: 0.77 mg/dL
ABSOLUTE BASOPHIL [4]: 0 CELLS/uL
ABSOLUTE EOSINOPHIL [4]: 0 CELLS/uL
ABSOLUTE LYMPHOCYTE [4]: 11824 CELLS/uL
ABSOLUTE MONOCYTE [4]: 160 CELLS/uL
ABSOLUTE SEGMENTED NEUTROPHIL [4]: 1549.33 CELLS/uL
BASOPHIL [4]: 0%
EOSINOPHIL [4]: 0%
ERYTHROCYTE COUNT [4]: 5.24 x10E6/uL
HEMATOCRIT [4]: 32.97%
HEMOGLOBIN [4]: 13 G/DL
LEUKOCYTE COUNT [4]: 13.53 x10E3/uL
LYMPHOCYTE [4]: 87%
MEAN CORPUSCULAR HEMOGLOBIN [4]: 24.87 pg
MEAN CORPUSCULAR HEMOGLOBIN CONCENTRATION [4]: 39.43 G/DL
MEAN CORPUSCULAR VOLUME [4]: 63.07 fL
MONOCYTE [4]: 1%
NEUTROPHIL [4]: 12%
NUCLEATED RED BLOOD CELLS [4]: 0 /100WBC
PLATELET COUNT [4]: 1265.67 x10E3/uL
ALANINE AMINOTRANSFERASE [4]: 76 u/L
ALBUMIN [4]: 4.27 G/DL
ALKALINE PHOSPHATASE [4]: 393 u/L
ASPARTATE AMINOTRANSFERASE [4]: 91.67 u/L
BLOOD UREA NITROGEN [4]: 10.67 mg/dL
CARBON DIOXIDE [4]: 30 mmol/L
CHLORIDE [4]: 98 MEQ/L
CHOLESTEROL [4]: 68 mg/dL
CREATINE PHOSPHOKINASE [4]: 173 u/L
CREATININE [4]: 0.12 mg/dL
GLUCOSE [4]: 150.67 mg/dL
LACTATE DEHYDROGENASE [4]: 80.33 u/L
LIPASE [4]: 33.67 u/L
PHOSPHORUS [4]: 9.53 mg/dL
POTASSIUM [4]: 5.88 MEQ/L
SODIUM [4]: 144.2 MEQ/L
TOTAL BILIRUBIN [4]: 0.1 mg/dL
TOTAL PROTEIN [4]: 5.83 G/DL
URIC ACID [4]: 0.63 mg/dL
ABSOLUTE BASOPHIL [5]: 0 CELLS/uL
ABSOLUTE EOSINOPHIL [5]: 0 CELLS/uL
ABSOLUTE LYMPHOCYTE [5]: 6372.33 CELLS/uL
ABSOLUTE MONOCYTE [5]: 130.67 CELLS/uL
ABSOLUTE SEGMENTED NEUTROPHIL [5]: 463.67 CELLS/uL
BASOPHIL [5]: 0%
EOSINOPHIL [5]: 0%
ERYTHROCYTE COUNT [5]: 5.18 x10E6/uL
HEMATOCRIT [5]: 32.47%
HEMOGLOBIN [5]: 12.27 G/DL
LEUKOCYTE COUNT [5]: 6.97 x10E3/uL
LYMPHOCYTE [5]: 90.33%
MEAN CORPUSCULAR HEMOGLOBIN [5]: 23.7 pg
MEAN CORPUSCULAR HEMOGLOBIN CONCENTRATION [5]: 37.8 G/DL
MEAN CORPUSCULAR VOLUME [5]: 62.77 fL
MONOCYTE [5]: 1.67%
NEUTROPHIL [5]: 8%
NUCLEATED RED BLOOD CELLS [5]: 0 /100WBC
PLATELET COUNT [5]: 1187.33 x10E3/uL
ALANINE AMINOTRANSFERASE [5]: 50 u/L
ALBUMIN [5]: 4.47 G/DL
ALKALINE PHOSPHATASE [5]: 371.33 u/L
ASPARTATE AMINOTRANSFERASE [5]: 87.67 u/L
BLOOD UREA NITROGEN [5]: 11.33 mg/dL
CARBON DIOXIDE [5]: 34 mmol/L
CHLORIDE [5]: 101.67 MEQ/L
CHOLESTEROL [5]: 32.67 mg/dL
CREATINE PHOSPHOKINASE [5]: 431.33 u/L
CREATININE [5]: 0.19 mg/dL
GLUCOSE [5]: 136.67 mg/dL
LACTATE DEHYDROGENASE [5]: 119.33 u/L
LIPASE [5]: 8.67 u/L
PHOSPHORUS [5]: 11.1 mg/dL
POTASSIUM [5]: 5.95 MEQ/L

Reference: ChEMBL document CHEMBL3885881, “DrugMatrix”
